Here are results for three molecules from ChEMBL document CHEMBL3124838, “Discovery of 6-aryl-azabenzimidazoles that inhibit the TBK1/IKK-ε kinases” (Bioorg Med Chem Lett, 2014).

The target in test [1] is Fibroblast growth factor receptor 2 (Homo sapiens) (UniProt P21802). Nature of the test: Inhibition of human FGFR2 assessed as residual activity at 1 uM relative to control.
The target in test [2] is T1, Inhibitor of nuclear factor kappa-B kinase subunit beta (Homo sapiens) (UniProt O14920).
T1 sequence (whole entry): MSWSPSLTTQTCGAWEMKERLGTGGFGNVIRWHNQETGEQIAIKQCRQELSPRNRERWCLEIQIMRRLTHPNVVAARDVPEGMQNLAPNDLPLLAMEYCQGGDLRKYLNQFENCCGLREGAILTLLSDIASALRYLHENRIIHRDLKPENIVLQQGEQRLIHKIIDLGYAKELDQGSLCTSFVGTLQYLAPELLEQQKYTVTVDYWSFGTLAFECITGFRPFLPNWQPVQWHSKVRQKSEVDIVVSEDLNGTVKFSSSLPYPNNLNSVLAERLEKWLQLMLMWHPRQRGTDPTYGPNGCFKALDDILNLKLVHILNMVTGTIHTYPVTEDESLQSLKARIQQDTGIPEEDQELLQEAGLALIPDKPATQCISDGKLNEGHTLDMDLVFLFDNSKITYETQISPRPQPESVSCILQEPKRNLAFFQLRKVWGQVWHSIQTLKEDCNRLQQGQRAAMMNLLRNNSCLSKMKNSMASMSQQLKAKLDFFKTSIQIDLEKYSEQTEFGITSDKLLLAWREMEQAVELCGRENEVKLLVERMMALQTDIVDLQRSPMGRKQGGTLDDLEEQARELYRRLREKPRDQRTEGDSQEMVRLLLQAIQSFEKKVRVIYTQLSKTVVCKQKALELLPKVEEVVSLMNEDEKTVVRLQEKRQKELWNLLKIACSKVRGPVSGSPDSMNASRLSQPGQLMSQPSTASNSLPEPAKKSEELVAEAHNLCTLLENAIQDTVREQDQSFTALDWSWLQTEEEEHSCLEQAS
The experiment in a line: Inhibition of human IKKbeta assessed as residual activity at 1 uM relative to control.

Test [3] addresses T2, Eukaryotic elongation factor 2 kinase (Homo sapiens) (UniProt O00418).
T2 sequence (whole entry): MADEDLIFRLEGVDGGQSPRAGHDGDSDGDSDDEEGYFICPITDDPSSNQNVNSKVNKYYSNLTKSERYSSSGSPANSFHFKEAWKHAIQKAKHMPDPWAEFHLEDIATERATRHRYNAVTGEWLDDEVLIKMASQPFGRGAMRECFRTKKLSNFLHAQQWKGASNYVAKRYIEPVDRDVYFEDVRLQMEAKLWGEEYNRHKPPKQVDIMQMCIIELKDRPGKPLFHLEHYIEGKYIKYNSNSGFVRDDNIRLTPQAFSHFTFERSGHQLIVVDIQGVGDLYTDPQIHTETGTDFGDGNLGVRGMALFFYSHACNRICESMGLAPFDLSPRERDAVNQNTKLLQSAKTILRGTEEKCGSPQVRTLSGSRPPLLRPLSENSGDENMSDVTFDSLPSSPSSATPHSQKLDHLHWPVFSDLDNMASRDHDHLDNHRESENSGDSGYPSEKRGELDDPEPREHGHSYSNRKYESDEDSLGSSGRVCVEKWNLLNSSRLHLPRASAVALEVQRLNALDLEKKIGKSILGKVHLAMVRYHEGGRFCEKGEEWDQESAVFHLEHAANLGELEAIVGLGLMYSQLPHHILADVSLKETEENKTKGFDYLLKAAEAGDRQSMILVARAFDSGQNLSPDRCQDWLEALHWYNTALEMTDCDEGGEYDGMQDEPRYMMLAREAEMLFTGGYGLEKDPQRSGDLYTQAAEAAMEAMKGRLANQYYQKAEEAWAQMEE
Nature of the test: Inhibition of human eEF-2K assessed as residual activity at 1 uM relative to control.

In test [4] the target is T3, Dual specificity tyrosine-phosphorylation-regulated kinase 2 (Homo sapiens) (UniProt Q92630).
T3 sequence (whole entry): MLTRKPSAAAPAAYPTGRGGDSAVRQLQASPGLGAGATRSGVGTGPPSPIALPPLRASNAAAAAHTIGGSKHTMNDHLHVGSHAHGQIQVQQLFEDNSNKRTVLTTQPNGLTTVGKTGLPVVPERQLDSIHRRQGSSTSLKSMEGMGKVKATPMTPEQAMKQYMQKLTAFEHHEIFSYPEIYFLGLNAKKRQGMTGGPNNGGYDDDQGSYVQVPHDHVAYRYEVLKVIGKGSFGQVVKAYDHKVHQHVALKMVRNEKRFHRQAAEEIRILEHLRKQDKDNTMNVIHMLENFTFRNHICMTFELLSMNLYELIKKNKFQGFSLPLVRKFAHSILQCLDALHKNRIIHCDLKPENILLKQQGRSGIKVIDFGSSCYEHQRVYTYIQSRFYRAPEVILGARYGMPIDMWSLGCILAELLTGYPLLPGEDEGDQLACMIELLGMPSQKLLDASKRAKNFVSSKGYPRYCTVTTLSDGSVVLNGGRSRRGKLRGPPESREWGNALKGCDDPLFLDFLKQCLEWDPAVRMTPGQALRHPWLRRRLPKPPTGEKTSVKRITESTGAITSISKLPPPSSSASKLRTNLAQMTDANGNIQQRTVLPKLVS
The experiment in a line: Inhibition of human DYRK2 assessed as residual activity at 1 uM relative to control.

Test [5] has as its target T4, Serine/threonine-protein kinase Nek2 (Homo sapiens) (UniProt P51955).
T4 sequence (whole entry): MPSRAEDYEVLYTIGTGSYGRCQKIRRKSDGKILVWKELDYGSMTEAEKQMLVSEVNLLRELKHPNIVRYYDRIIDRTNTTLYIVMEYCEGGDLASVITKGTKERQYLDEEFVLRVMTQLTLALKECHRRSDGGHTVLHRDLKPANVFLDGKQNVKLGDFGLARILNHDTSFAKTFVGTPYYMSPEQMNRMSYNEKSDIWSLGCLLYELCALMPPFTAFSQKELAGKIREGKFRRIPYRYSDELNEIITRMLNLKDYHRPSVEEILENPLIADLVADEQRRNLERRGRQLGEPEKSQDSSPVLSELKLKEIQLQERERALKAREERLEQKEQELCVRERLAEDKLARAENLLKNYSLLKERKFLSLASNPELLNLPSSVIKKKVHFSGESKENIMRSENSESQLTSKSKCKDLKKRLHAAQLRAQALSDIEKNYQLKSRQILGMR
Nature of the test: Inhibition of human NEK2 assessed as residual activity at 1 uM relative to control.

Test [6] has as its target Tyrosine-protein kinase receptor UFO (Homo sapiens) (UniProt P30530). Nature of the test: Inhibition of human AXL assessed as residual activity at 1 uM relative to control.
Test [7] concerns the target Tyrosine-protein kinase BTK (Homo sapiens) (UniProt Q06187). Nature of the test: Inhibition of human BTK assessed as residual activity at 1 uM relative to control.

The structures appear in SMILES notation.

Tyrosine-protein kinase BTK (Homo sapiens), sequence (Q06187 whole entry): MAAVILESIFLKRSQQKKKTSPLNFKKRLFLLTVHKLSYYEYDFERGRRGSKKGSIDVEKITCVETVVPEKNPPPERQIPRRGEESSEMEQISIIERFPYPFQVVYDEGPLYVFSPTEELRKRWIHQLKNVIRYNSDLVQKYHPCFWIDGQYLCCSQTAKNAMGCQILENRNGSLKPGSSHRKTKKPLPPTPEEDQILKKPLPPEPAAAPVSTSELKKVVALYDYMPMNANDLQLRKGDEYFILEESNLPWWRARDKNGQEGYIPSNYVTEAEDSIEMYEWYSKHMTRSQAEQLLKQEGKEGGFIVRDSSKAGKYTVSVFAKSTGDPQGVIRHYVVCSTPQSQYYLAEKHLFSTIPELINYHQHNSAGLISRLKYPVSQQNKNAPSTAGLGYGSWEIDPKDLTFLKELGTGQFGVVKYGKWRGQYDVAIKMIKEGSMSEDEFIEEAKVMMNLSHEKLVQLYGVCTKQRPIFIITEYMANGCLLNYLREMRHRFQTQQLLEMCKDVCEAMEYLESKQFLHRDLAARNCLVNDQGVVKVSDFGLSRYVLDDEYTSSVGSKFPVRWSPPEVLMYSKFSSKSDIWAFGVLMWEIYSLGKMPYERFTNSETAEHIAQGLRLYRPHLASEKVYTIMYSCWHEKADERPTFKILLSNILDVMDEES
Tyrosine-protein kinase receptor UFO (Homo sapiens), sequence (P30530 whole entry): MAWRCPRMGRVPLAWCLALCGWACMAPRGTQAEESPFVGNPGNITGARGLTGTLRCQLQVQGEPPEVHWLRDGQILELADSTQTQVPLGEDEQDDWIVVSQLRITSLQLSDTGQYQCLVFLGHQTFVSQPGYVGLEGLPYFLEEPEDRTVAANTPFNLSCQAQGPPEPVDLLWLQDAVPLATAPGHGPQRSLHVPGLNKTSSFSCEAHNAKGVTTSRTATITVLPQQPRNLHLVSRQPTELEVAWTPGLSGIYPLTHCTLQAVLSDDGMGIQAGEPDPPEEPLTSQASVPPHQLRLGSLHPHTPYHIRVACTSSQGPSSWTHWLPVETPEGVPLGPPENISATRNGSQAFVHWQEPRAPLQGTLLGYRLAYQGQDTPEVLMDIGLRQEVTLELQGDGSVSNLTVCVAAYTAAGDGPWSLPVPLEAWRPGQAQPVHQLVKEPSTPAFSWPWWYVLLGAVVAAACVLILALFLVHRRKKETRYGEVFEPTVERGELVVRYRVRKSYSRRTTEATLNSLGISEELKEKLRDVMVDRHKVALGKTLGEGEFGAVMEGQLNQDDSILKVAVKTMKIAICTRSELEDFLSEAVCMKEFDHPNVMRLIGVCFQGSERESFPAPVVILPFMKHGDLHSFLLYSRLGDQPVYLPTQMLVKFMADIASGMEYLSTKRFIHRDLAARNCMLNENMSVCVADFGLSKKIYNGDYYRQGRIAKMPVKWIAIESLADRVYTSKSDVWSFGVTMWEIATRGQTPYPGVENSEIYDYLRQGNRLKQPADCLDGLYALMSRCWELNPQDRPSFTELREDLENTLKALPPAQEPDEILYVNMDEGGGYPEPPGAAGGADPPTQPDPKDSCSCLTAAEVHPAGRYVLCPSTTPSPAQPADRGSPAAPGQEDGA
Fibroblast growth factor receptor 2 (Homo sapiens), sequence (P21802 22-821 limits assumed): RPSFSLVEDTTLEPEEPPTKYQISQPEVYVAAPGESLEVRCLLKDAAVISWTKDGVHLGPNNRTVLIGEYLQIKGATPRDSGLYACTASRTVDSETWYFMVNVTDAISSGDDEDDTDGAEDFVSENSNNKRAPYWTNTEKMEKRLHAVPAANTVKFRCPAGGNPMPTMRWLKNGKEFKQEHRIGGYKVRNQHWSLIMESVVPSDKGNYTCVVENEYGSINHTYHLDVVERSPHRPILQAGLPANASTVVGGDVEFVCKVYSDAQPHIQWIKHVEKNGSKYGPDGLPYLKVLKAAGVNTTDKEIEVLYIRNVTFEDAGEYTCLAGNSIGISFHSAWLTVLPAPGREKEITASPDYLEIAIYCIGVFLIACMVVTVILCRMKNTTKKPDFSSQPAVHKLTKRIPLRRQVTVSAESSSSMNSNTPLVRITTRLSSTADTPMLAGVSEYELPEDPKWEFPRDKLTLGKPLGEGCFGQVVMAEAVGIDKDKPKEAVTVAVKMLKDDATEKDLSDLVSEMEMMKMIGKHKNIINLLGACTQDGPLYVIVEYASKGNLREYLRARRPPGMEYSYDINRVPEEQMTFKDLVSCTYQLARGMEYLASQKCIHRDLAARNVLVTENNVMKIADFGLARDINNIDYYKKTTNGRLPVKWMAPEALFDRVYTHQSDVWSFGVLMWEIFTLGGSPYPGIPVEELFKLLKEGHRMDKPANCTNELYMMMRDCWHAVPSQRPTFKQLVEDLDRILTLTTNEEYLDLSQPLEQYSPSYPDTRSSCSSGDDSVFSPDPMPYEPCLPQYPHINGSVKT

As to `COc1ccc(-c2nc3cc(-c4csc(C(=O)NCC(C)(C)C)c4)cnc3[nH]2)cc1`, the Activity in test [1] was 100%; in test [2] it was 99%; in test [3] it was 91%; in test [4], 30%; in test [5], 111%; in test [6], 103%. Moreover, in test [7], the Activity came to 100%.

On to `COc1ccc(-c2nc3cc(-c4csc(C(=O)NCCC(C)C)c4)cnc3[nH]2)cc1`, for which the Activity in test [1] amounted to 90%; in test [2], 95%; in test [3] it was 101%; in test [4], 11%; in test [5], 97%; in test [6], 98%. For the same molecule, the Activity in test [7] was 93%.

On to `COc1ccc(-c2nc3cc(-c4csc(C(=O)NCC(C)C)c4)cnc3[nH]2)cc1`, for which the Activity in test [1] was found to be 88%; in test [2], 95%; in test [3] it was 102%; in test [4], 20%; in test [5], 120%; in test [6], 98%. For the same molecule, the Activity in test [7] turned out to be 112%.
